The record followed here is ChEMBL document CHEMBL3045012, “Quinoline-based azetidinone and thiazolidinone analogues as antimicrobial and antituberculosis agents” (2013).

Type in all cases: functional
Assay [1] has as its system Escherichia coli. Put plainly: Antimicrobial activity against Escherichia coli MTCC 739 assessed as diameter of growth inhibition zone after 24 hr by paper disk diffusion technique. (In agar diffusion tests the substance spreads into inoculated agar from a disc or well.)
In assay [2] the test system is Escherichia coli. Put plainly: Antimicrobial activity against Escherichia coli MTCC 739 assessed as growth inhibition after 24 hr by agar streak dilution technique. The note with it: MTCC 739, 24 h.
For assay [3], the system named is Staphylococcus aureus. Put plainly: Antimicrobial activity against Staphylococcus aureus MTCC 96 assessed as diameter of growth inhibition zone after 24 hr by paper disk diffusion technique.
For assay [4], the system named is Candida albicans. Put plainly: Antimicrobial activity against Candida albicans MTCC 183 assessed as growth inhibition after 48 hr by agar streak dilution technique. Particulars: MTCC 183, 48 h.
In assay [5] the test system is Aspergillus niger. The experiment in a line: Antimicrobial activity against Aspergillus niger MTCC 282 assessed as diameter of growth inhibition zone after 24 hr by paper disk diffusion technique.
In assay [6] the test system is Bacillus subtilis. The experiment in a line: Antimicrobial activity against Bacillus subtilis MTCC 430 assessed as growth inhibition after 24 hr by agar streak dilution technique. Particulars: MTCC 430, 24 h.
For assay [7], the system named is Bacillus subtilis. The experiment in a line: Antimicrobial activity against Bacillus subtilis MTCC 430 assessed as diameter of growth inhibition zone after 24 hr by paper disk diffusion technique.
The test system of assay [8] is Mycobacterium tuberculosis. Put plainly: Antituberculosis activity against Mycobacterium tuberculosis H37Rv assessed as growth inhibition after 12 to 28 days by L-J MIC method. Particulars: for MIC: Mycobacterium tuberculosis, H37Rv.
Assay [9] relates to Pseudomonas aeruginosa. The experiment in a line: Antimicrobial activity against Pseudomonas aeruginosa MTCC 741 assessed as diameter of growth inhibition zone after 24 hr by paper disk diffusion technique.
For assay [10], the system named is Candida albicans. The experiment in a line: Antimicrobial activity against Candida albicans MTCC 183 assessed as diameter of growth inhibition zone after 24 hr by paper disk diffusion technique.
The test system of assay [11] is Staphylococcus aureus. The experiment in a line: Antimicrobial activity against Staphylococcus aureus MTCC 96 assessed as growth inhibition after 24 hr by agar streak dilution technique. The note with it: MTCC 96, 24 h.
The test system of assay [12] is Aspergillus niger. The experiment in a line: Antimicrobial activity against Aspergillus niger MTCC 282 assessed as growth inhibition after 48 hr by agar streak dilution technique. The note with it: MTCC 282, 48 h.
For assay [13], the system named is Pseudomonas aeruginosa. The experiment in a line: Antimicrobial activity against Pseudomonas aeruginosa MTCC 741 assessed as growth inhibition after 24 hr by agar streak dilution technique. The note with it: MTCC 741, 24 h.

≈ marks a conversion by molar mass, not a printed value.

A word on the MIC: it is the least concentration at which growth counts as inhibited. For the molecule `O=C1C(Cl)C(c2cc3ccccc3nc2Cl)N1c1ccccc1` (stereo not given), the “diameter of the inhibition zone (DIZ)” value in assay [1], in assay [3], in assay [5], in assay [7], in assay [9] and in assay [10] was under 10 mm each time. Also, the MIC was found to be 100 µg/mL (≈ 291 µM) in [2]; 100 µg/mL (≈ 291 µM) in [4]; 100 µg/mL (≈ 291 µM) in assay [6]; 500 µg/mL (≈ 1460 µM) in [8]; 100 µg/mL (≈ 291 µM) in [11]; 100 µg/mL (≈ 291 µM) in assay [12]. Moreover, in [13], the MIC was found to be 100 µg/mL (≈ 291 µM). In [8], the “growth inhibition (GI)” value is 90%.

As for `Cc1ccccc1N1C(=O)C(Cl)C1c1cc2ccccc2nc1Cl` (stereo not given), the “diameter of the inhibition zone (DIZ)” value is given as under 10 mm in assay [1]; 16 mm in assay [3]; under 10 mm in [5]; under 10 mm in [7]; under 10 mm in assay [9]; under 10 mm in assay [10]. Further, the MIC turned out to be 100 µg/mL (≈ 280 µM) in [2]; 100 µg/mL (≈ 280 µM) in [4]; 100 µg/mL (≈ 280 µM) in assay [6]; 1000 µg/mL (≈ 2800 µM) in assay [8]; 100 µg/mL (≈ 280 µM) in assay [11]; 100 µg/mL (≈ 280 µM) in assay [12]. Further, the MIC in [13] stood at 100 µg/mL (≈ 280 µM). For the same molecule, the “growth inhibition (GI)” value in assay [8] was 91%.

`Cc1cccc(N2C(=O)C(Cl)C2c2cc3ccccc3nc2Cl)c1` (stereo not given): the “diameter of the inhibition zone (DIZ)” value in assay [1] was 14 mm; in assay [3] it was under 10 mm; in assay [5] it was 20 mm; in [7], 18 mm; in assay [9] it was 16 mm; in [10] it was under 10 mm. In addition, the MIC stood at 100 µg/mL (≈ 280 µM) in assay [2]; 100 µg/mL (≈ 280 µM) in assay [4]; 100 µg/mL (≈ 280 µM) in assay [6]; 500 µg/mL (≈ 1400 µM) in [8]; 100 µg/mL (≈ 280 µM) in [11]; 100 µg/mL (≈ 280 µM) in assay [12]. Moreover, the MIC in [13] stood at 100 µg/mL (≈ 280 µM). In addition, the “growth inhibition (GI)” value in [8] is on record as 90%.

`Cc1ccc(N2C(=O)C(Cl)C2c2cc3ccccc3nc2Cl)cc1` (stereo not given): the “diameter of the inhibition zone (DIZ)” value is 15 mm in [1]; 17 mm in [3]; under 10 mm in assay [5]; 16 mm in assay [7]; 13 mm in assay [9]; 19 mm in assay [10]. In addition, the MIC in assay [2] is 100 µg/mL (≈ 280 µM); in [4], 100 µg/mL (≈ 280 µM); in [6], 100 µg/mL (≈ 280 µM); in assay [8], 200 µg/mL (≈ 560 µM); in assay [11], 100 µg/mL (≈ 280 µM); in assay [12] it was 100 µg/mL (≈ 280 µM). In addition, the MIC in assay [13] worked out at 100 µg/mL (≈ 280 µM). Further, the “growth inhibition (GI)” value in assay [8] worked out at 94%.

For the molecule `O=C1C(Cl)C(c2cc3ccccc3nc2Cl)N1c1ccccc1[N+](=O)[O-]` (stereo not given), the “diameter of the inhibition zone (DIZ)” value is listed as 22 mm in assay [1]; 20 mm in assay [3]; 22 mm in [5]; 21 mm in [7]; 21 mm in assay [9]; 20 mm in assay [10]. Also, the MIC in assay [2] was found to be 100 µg/mL (≈ 258 µM); in assay [4] it was 100 µg/mL (≈ 258 µM); in assay [6] it was 62.5 µg/mL (≈ 161 µM); in assay [8], 250 µg/mL (≈ 644 µM); in assay [11], 100 µg/mL (≈ 258 µM); in assay [12] it was 50 µg/mL (≈ 129 µM). In addition, the MIC in [13] was determined as 62.5 µg/mL (≈ 161 µM). In assay [8], the “growth inhibition (GI)” value is 92%.
